Laboratory results as given in patent publication US9885704B2, “Reagents and methods for cancer treatment and prevention” (priority 2006, dated 2018).

How the values were obtained:
HeLa cells = experiment: Pro-inflammatory cytokine release from THP-1 after exposure to compound-treated HeLa cells (ELISA); type: cell-based, human; details: for TNF-α secretion / immunostimulatory activity: HeLa cells treated with compound, FIG. 1
Experimental: The human cervical epithelium cell line HeLa and the mouse B16-F10 melanoma were purchased from American TCC and maintained in Dulbecco's modified eagle's media [D-MEM (Cellgro®, Herndon Va.)] supplemented with 10% fetal bovine serum (Sigma-Aldrich, St. Louis, Mo.). All cell stress/death-related treatments described below were performed using HeLa cells in initial screens. The human promonocytic leukemia THP-1 (ATCC, Manassas Va.) and pro-macrophage MonoMac6 cells were utilized as the reporter antigen presenting cells utilized in this study. Ziegler-Heitbrock et al., “Establishment of a human cell line (Mono Mac 6) with characteristics of mature monocytes” Int. J. Cancer 41:456-461 (1988). Both lines were maintained in RPMI-1640 media (Cellgro®) supplemented with 10% fetal bovine serum. Unless otherwise noted, all cells were maintained at 37° C. in a humidified incubator supplemented with 5% CO2.
The following list includes the small molecule compounds evaluated in this study: thapsigargin, thapsigargicin (MP Biomedicals, Irvine Calif.), 1,2-bis(o-aminophenoxy)ethane-N,N,N′,N′-tetraacetic Acid Tetra(acetoxymethyl) ester [BAPTA-AM, (EMD Biosciences, San Diego, Calif.)], ethyleneglycol-bis(β-aminoethyl)-N,N,N′,N′-tetraacetoxymethyl ester [EGTA-AM (EMD Biosciences)], 1,2-bis(2-aminophenoxy)ethane-N,N,N′,N′-tetraacetic acid […], tetrandrine, KCl, Amyloid peptide Aβ1-42, 1-Oleoyl-2-acetyl-sn-glycerol (OAG), calcimycin A23187, 2-aminoethyl diphenylborinate (2-APB), histamine, cyclopiazonic acid, 2,5-di-(t-butyl)-1,4-hydroquinone [BHQ (EMD Biosciences)], GdCl3, nicardipine hydrochloride, 1-(o-chloro-α,αdiphenylbenzyl)imidazole (clotrimazole), apamin, charybdotoxin, radicicol, brefeldin A, tunicamycin, tamoxifen, ionomycin, staurosporine, cis-diammineplatinum(II) dichloride (cisplatin), paclitaxel, methotrexate, cycloheximide, and rapamycin. Unless otherwise noted, all compounds were purchased from Sigma-Aldrich. Compounds were dissolved per manufacturer's recommendations prior to addition to HeLa cells in a range of concentrations based on the published literature and incubated between 1 minute to two days. The known mediators of inflammation pam3cys-ser-(lys)4, hydrochloride (Pam3Cys), bacterial flagellin, and lipopolysaccharide were purchased from EMD Biosciences.
Following cell stress/death, resulting cells/cell debris were collected, washed 3 times with excess phosphate-buffered saline, rapidly cycled through freeze/thaw (−80° C. to 25° C.) three times, and quantified by UV spectrophotometry (A280). To determine the presence of pro-inflammatory signals within stressed/dead cells, 40 μg of stressed/dead cell were added to 50,000 THP-1 and incubated for 18 hours. Supernatants were assessed for the presence of pro-inflammatory cytokines including tumor necrosis factor-α (TNF-α), interleukin 8 (IL-8), and IL-12 using commercially available ELISA systems.
A variety of different potential cell stress and cell death inducing agents were screened. […] (See FIG. 1).

[1] = tested on: Ca(2+)-ATPase from sarcoplasmic and endoplasmic reticula; details: activity not further specified; context Ca(2+)-ATPase inhibitory potency; cited from earlier work
[2] = tested on: NF-κB promoter (MonoMac-6 Clone C5); experiment: NF-κB promoter luciferase reporter, MonoMac-6 Clone C5; type: cell-based, human; details: FIG. 11
Text: A stably transfected DNA construct encoding a NF-κB promoter driving firefly luciferase expression was integrated into: i) human pre-monocytic cell line THP-1; and ii) human premonocytic cell line MonoMac-6. Briefly, DNA encoding a concatemerized NF-κB response element upstream of the firefly luciferase gene [Ting et al., “RIP mediates tumor necrosis factor receptor 1 activation of NF-kappaB but not Fas/APO-1-initiated apoptosis” EMBO J. November 15; 15(22):6189-96(1996)] was subcloned into the pEAK8 vector backbone (Edge Biosystems, Gaithersburg Md.) by standard molecular biology techniques. Electroporations were performed using 10 μg of DNA and 700,000 THP-1 or MonoMac6 cells using a Biorad Gene Pulser II electroporator (Biorad, Hercules Calif.), 0.4 cm electrocuvettes, and 200 V, 950 μF. Following electroporation, cells were allowed to recover for two days prior to selection with 300 ng/ml puromycin aminonucleoside (Sigma-Aldrich) for the generation of stably transfected clones. Luciferase expression was quantified using a Top Count NXT luminometer (Perkin Elmer, Wellesley Mass.). Briefly, 50,000 reporter cells were incubated with indicated concentrations of the mediators of inflammation listed for 18 hours in 96-well white plates prior to harvest and analysis.
A second stable NF-κB reporter construct transfectant was created using MonoMac-6 cells. […]

[3] = tested on: NF-κB promoter (THP-1 Clone A9); experiment: NF-κB promoter luciferase reporter, THP-1 Clone A9; type: cell-based, human; details: 50,000 reporter cells, 18 hours; FIG. 10
Text: A stably transfected DNA construct encoding a NF-κB promoter driving firefly luciferase expression was integrated into: i) human pre-monocytic cell line THP-1; and ii) human premonocytic cell line MonoMac-6. Briefly, DNA encoding a concatemerized NF-κB response element upstream of the firefly luciferase gene [Ting et al., “RIP mediates tumor necrosis factor receptor 1 activation of NF-kappaB but not Fas/APO-1-initiated apoptosis” EMBO J. November 15; 15(22):6189-96(1996)] was subcloned into the pEAK8 vector backbone (Edge Biosystems, Gaithersburg Md.) by standard molecular biology techniques. Electroporations were performed using 10 μg of DNA and 700,000 THP-1 or MonoMac6 cells using a Biorad Gene Pulser II electroporator (Biorad, Hercules Calif.), 0.4 cm electrocuvettes, and 200 V, 950 μF. […] Luciferase expression was quantified using a Top Count NXT luminometer (Perkin Elmer, Wellesley Mass.). […]
The THP-1-derived clone A9 recognition of the TLR ligands Pam-3-Cys (signaling through TLR2) and bacterial flagellin (signaling through TLR5), but not bacterial lipopolysaccharide (signaling through TLR4) was determined by monitoring NF-κB activity in 96-well white plate automated assays during TG incubation. […]

CC(=O)O[C@H]1C(=O)[C@@]2(C)[C@H]([C@H](OC(=O)c3ccccc3)[C@]3(O)C[C@H](OC(=O)[C@H](O)[C@@H](NC(=O)c4ccccc4)c4ccccc4)C(C)=C1C3(C)C)[C@]1(OC(C)=O)CO[C@@H]1C[C@@H]2O [Taxol®, paclitaxel]
TNF-α secretion / immunostimulatory activity (HeLa cells): did not induce immunostimulatory activity

C/C=C(/C)C(=O)O[C@H]1C(C)=C2[C@H]([C@@H]1OC(=O)CCCCC)[C@@](C)(OC(C)=O)C[C@H](OC(=O)CCC)[C@@]1(O)[C@H]2OC(=O)[C@@]1(C)O [Thapsigargicin]
secretion of IL-8 from THP-1 (HeLa cells; treated HeLa cells, monocyte cell line THP-1, FIG. 2): activated a dose-dependent secretion of IL-8

C[C@H]1CCC/C=C/[C@@H]2C[C@H](O)C[C@H]2[C@H](O)/C=C/C(=O)O1 [brefledin A, brefeldin A]
TNF-α secretion / immunostimulatory activity (HeLa cells): did not induce immunostimulatory activity

CNc1ccc2oc(C[C@H]3O[C@@]4(CC[C@H]3C)O[C@H]([C@H](C)C(=O)c3ccc[nH]3)[C@H](C)C[C@H]4C)nc2c1C(=O)O [calcimycin, calcimycin A23187]
TNF-α secretion / immunostimulatory activity (HeLa cells): did not induce immunostimulatory activity

C/C=C(/C)C(=O)O[C@@H]1C[C@H]2[C@@H]([C@H]1C)[C@@H]1OC(=O)[C@@](C)(O)[C@@]1(O)C(OC(=O)[C@@H](C)CC)C[C@]2(C)OC(C)=O (stereo partly shown) [compound 77]
activity of synthetic thapsigargin analogue [1]: potent activity

C[C@@H]1C[C@@H]([C@H](O)CC2CC(=O)NC(=O)C2)C(=O)[C@@H](C)C1 [cycloheximide]
TNF-α secretion / immunostimulatory activity (HeLa cells): did not induce immunostimulatory activity

bacterial lipopolysaccharide
recognition (NF-κB activity, luciferase) [2]: improved recognition

pam3cys-ser-(lys)4, hydrochloride
recognition (NF-κB activity, luciferase) [3]: recognition
recognition (NF-κB activity, luciferase) [2]: recognized

tunicamycin
TNF-α secretion / immunostimulatory activity (HeLa cells): did not induce immunostimulatory activity
